From ChEMBL document CHEMBL4265895, “Novel inhibitors of As(III) S-adenosylmethionine methyltransferase (AS3MT) identified by virtual screening” (Bioorg Med Chem Lett, 2018)

Legend:
[1] = molecular target: T1, Arsenite methyltransferase (Homo sapiens, UniProt Q9HBK9); experiment: Inhibition of human AS3MT using NaAsO2 as substrate preincubated for 30 minutes followed by substrate addition measured after 90 mins in presence of SAM
T1 sequence (Q9HBK9 whole entry): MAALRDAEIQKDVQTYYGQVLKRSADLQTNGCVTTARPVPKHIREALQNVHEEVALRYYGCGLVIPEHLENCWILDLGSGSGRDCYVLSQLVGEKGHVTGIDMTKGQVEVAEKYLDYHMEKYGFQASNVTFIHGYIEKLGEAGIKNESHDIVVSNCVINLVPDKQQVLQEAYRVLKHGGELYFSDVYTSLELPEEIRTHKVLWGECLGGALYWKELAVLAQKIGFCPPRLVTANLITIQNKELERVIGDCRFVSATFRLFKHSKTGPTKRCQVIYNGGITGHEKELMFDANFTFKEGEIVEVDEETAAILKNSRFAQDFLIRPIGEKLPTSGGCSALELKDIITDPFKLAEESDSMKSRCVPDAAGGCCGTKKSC

[2] = molecular target: Histone-lysine N-methyltransferase, H3 lysine-79 specific (Homo sapiens, UniProt Q8TEK3); experiment: Inhibition of full-length DOT1L (unknown origin) using HeLa oligonucleosome as substrate preincubated for 15 mins followed by substrate addition measured after 45 mins in presence of SAM by MTaseGlo assay
[3] = molecular target: T2, Histone-lysine N-methyltransferase NSD2 (Homo sapiens, UniProt O96028); experiment: Inhibition of full-length NSD2 (unknown origin) using HeLa oligonucleosome as substrate preincubated for 15 mins followed by substrate addition measured after 45 mins in presence of SAM by MTaseGlo assay
T2 sequence (O96028 whole entry): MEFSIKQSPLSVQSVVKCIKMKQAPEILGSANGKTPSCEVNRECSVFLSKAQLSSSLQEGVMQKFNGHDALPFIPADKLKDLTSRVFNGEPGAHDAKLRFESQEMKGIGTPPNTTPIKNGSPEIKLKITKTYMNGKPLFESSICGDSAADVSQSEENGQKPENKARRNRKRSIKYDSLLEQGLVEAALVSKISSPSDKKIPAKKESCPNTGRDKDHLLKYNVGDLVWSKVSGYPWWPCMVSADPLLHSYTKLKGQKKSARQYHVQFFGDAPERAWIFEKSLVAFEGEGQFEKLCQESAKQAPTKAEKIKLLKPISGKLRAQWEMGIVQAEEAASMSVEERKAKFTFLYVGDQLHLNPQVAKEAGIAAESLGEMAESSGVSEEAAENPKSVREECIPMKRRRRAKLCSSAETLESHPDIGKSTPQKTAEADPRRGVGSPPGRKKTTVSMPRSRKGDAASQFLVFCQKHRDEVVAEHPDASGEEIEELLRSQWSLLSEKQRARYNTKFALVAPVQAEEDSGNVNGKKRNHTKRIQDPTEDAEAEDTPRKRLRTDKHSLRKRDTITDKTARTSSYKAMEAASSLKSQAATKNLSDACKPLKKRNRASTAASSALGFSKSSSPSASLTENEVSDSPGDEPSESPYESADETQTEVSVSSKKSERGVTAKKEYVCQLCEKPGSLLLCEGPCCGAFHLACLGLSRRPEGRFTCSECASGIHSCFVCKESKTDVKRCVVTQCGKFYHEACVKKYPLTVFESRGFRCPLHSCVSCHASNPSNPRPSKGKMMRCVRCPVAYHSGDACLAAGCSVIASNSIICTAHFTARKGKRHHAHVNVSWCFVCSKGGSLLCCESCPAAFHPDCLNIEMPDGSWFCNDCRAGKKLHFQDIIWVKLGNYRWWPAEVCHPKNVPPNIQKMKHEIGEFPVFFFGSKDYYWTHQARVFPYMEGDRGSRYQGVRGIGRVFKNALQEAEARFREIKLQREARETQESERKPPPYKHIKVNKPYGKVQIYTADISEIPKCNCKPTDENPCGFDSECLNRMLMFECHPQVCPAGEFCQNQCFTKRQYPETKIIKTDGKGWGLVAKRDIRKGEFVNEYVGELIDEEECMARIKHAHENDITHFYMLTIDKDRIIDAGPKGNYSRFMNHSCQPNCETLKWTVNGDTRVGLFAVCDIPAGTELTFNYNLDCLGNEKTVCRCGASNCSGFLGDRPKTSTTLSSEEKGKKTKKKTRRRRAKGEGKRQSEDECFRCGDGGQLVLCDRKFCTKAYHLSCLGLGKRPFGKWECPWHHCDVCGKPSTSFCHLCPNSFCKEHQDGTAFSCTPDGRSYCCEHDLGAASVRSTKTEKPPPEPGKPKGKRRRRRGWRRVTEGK

Histone-lysine N-methyltransferase, H3 lysine-79 specific, sequence (Q8TEK3 whole entry): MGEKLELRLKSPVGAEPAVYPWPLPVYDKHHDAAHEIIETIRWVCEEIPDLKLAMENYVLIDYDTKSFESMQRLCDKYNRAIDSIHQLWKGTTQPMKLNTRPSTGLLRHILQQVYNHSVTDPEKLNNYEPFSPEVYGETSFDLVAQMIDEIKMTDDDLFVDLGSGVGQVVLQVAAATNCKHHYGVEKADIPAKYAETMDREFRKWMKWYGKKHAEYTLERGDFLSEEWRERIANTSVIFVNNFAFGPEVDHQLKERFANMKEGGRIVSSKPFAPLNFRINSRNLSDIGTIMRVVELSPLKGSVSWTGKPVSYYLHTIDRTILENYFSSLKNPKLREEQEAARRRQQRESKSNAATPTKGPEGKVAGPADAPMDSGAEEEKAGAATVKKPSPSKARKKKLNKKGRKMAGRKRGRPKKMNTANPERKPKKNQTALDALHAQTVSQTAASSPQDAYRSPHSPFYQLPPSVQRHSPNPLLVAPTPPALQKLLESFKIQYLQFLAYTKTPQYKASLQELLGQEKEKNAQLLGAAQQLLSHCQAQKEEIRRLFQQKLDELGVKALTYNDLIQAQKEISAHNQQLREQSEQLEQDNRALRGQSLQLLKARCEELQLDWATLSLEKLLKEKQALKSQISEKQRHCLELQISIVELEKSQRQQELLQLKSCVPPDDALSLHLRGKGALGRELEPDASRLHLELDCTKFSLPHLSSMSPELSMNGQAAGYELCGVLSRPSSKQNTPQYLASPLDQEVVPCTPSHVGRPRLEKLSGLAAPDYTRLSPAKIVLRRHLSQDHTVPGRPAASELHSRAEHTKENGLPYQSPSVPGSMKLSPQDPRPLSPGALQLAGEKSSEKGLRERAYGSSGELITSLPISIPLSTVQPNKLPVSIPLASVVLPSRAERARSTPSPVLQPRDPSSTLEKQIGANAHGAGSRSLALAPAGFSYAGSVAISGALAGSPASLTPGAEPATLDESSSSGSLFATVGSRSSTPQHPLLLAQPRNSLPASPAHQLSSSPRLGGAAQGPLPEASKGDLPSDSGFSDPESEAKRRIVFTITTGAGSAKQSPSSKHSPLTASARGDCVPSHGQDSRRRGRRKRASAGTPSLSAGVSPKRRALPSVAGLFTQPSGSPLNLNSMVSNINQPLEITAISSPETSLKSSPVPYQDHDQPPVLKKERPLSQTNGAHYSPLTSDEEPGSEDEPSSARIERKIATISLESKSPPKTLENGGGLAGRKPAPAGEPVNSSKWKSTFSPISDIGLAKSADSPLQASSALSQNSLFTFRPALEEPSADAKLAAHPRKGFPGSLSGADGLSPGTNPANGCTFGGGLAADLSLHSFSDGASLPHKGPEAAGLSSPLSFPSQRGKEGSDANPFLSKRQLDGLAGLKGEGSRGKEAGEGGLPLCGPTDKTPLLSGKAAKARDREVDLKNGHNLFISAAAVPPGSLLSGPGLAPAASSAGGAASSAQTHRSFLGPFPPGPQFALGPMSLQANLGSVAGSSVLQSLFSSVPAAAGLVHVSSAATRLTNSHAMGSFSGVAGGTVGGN

IC50 [1] [µM]	IC50 [2] [µM]	IC50 [3] [µM]	Compound
3.6	> 100	49	N#Cc1c(N)[nH]c2ccc(OCc3ccccc3)cc12
> 100			CC(C)(C)C(=O)Nc1[nH]c2ccc(OCc3ccccc3)cc2c1C#N
1.8	99	12	CCn1c(N)c(C#N)c2cc(Oc3ccc(NC(=O)CN)cc3)ccc21
> 100			CCn1cc(C#N)c2cc(Oc3ccc(NC(=O)CN)cc3)ccc21
5	> 100	9.1	N#Cc1c(N)[nH]c2ccc(Oc3ccc(NC(=O)[C@H](N)CO)cc3)cc12
13.6	> 100	> 100	Cn1c(N)c(C#N)c2cc(OCc3ccccc3)ccc21
3	> 100	11	N#Cc1c(N)[nH]c2ccc(Oc3ccc(NC(=O)[C@@H](N)CO)cc3)cc12
1.4	> 100	> 100	Cn1c(N)c(C#N)c2cc(OCc3cccc(N)c3)ccc21
2.9			Cn1c(N)c(C#N)c2cc(OCc3cccc(NC(=O)C(N)CO)c3)ccc21 (centres undefined)
1.5	96	5.8	N#Cc1c(N)n(CC2CC2)c2ccc(Oc3ccc(NC(=O)CN)cc3)cc12
3.3	> 100	47	Cn1c(N)c(C#N)c2cc(Oc3ccc(NC(=O)CN)cc3)ccc21
8.3			CN(C)C(=O)Cn1c(N)c(C#N)c2cc(Oc3ccc(NC(=O)CN)cc3)ccc21
20			N#Cc1c(N)n(CC(N)=O)c2ccc(Oc3ccc(NC(=O)CN)cc3)cc12
